In PMC4533002 (2015):

How the values were obtained:
[1] = tested on: F-St1A/St2 split adenosine aptamer (initial sandwich) (DNA, aptamer) ACCTGGGGGAGTA/TGCGGAGGAAGGT; assay: fluorescence anisotropy; conditions: 50 mM NaCl, 10 mM MgCl2, 10 mM Tris pH 7.5, 25 °C, 10 nM F-St1A, 400 nM St2
[2] = tested on: F-St1A/St2-AmpA split adenosine aptamer with primer regions (DNA, aptamer) ACCTGGGGGAGTA/CCAACCGTGAAAAGATGATGGTGCGGAGGAAGGTCTTAGGTCTATCCCGATGCC; assay: fluorescence anisotropy; conditions: 50 mM NaCl, 10 mM MgCl2, 10 mM Tris pH 7.5, 25 °C, 10 nM F-St1A, 400 nM St2-AmpA
[3] = tested on: St1-CholB/St2-AmpB/Rev primB (system B) (DNA, aptamer) ATACCTGGGGGAGTATATAAT/CACACAGGAAACAGCGTATGACAATTATAGCGGAGGAAGGTATCCGTAGCCCTATCTGGATTGC/GCAATCCAGATAGGGCTACGG; assay: capillary electrophoresis isolation with real-time PCR; conditions: 25 mM NaCl, 5 mM MgCl2; 20 mM Tris pH 7.5, 0.5 mM Brij 35, 20 °C; adenosine up to 50 μM
[4] = tested on: F-St1A/St2-AmpA-Rev primA duplex split adenosine aptamer (DNA, aptamer) ACCTGGGGGAGTA/CCAACCGTGAAAAGATGATGGTGCGGAGGAAGGTCTTAGGTCTATCCCGATGCC/GGCATCGGGATAGACCTAAG; assay: fluorescence anisotropy; conditions: 50 mM NaCl, 10 mM MgCl2, 10 mM Tris pH 7.5, 25 °C, 10 nM F-St1A, 400 nM St2-AmpA-Rev primA duplex
[5] = tested on: St1-CholA/F-St2-AmpA/Rev primA (system A) (DNA, aptamer) ACCTGGGGGAGTA/CCAACCGTGAAAAGATGATGGTGCGGAGGAAGGTCTTAGGTCTATCCCGATGCC/GGCATCGGGATAGACCTAAG; assay: capillary electrophoresis with LIF (MEKC); conditions: 50 mM NaCl, 10 mM MgCl2 (incubation); 25 mM NaCl (running buffer); Tris pH 7.5 (incubation), pH 7.8 (running), 0.5 mM Brij 35, 20 °C; 500-2000 μM adenosine

Nc1ncnc2c1ncn2[C@@H]1O[C@H](CO)[C@@H](O)[C@H]1O
apparent Kd [1]: ~ 90 μM | apparent Kd [2]: > 500 µM | binding [3]: yes | apparent Kd [4]: ~ 90 μM | binding [5]: yes
